Source: patent US20260174714A1, “NONHUMAN ANIMAL AND USE THEREOF” (THE JIKEI UNIVERSITY, priority 2022, published 2026)

How the values were obtained:
[1] = tested on: foreign proximal renal tubular cells; conditions: in vivo, ip
Text: In Experimental Example 1, instead of the collected cells derived from the EGFP mouse embryonic E14 kidney, GFP-expressing human nephron precursor cells were directly injected into a subcapsular region of the kidney of a neonatal mouse aged 0 to 1 day after birth. The foreign nephrons in the cell injection region 2 weeks after the transplantation were examined by immunostaining (see (A) of FIG. 9). As shown in (A) of FIG. 9, the formation of glomeruli and renal tubules derived from GFP-expressing human nephron precursor cells was confirmed. In addition, cisplatin was intraperitoneally administered to a mouse individual having a chimeric kidney 2 weeks after the transplantation of the GFP-expressing human nephron precursor cells, and the regenerated nephrons were recovered 48 hours later and evaluated by immunofluorescence staining.

[2] = tested on: foreign proximal renal tubular cells; conditions: mouse, in vivo, ip
Text: (§1) This method has a low accuracy in the cell injection site and a low survival rate of the host fetus, and thus, a simpler method is required to establish the method as an evaluation model. Therefore, the collected cells derived from the EGFP mouse embryonic E14 kidney were directly injected into a subcapsular region of the kidney of a neonatal mouse aged 0 to 1 day after birth (see FIG. 3) by utilizing a fact that nephron precursor cells remain until about 3 days after birth and the renal development continues in mice (see Hartman H A, Lai H L. Cessation of renal morphogenesis in mice. 2007; 310(2): 379-87).
(§2) Cisplatin was intraperitoneally administered to a mouse individual having a chimeric kidney 2 weeks after transplantation, which was created in Experimental Example 1, and the regenerated nephrons were recovered 48 hours later and evaluated by immunofluorescence staining.

regenerated nephrons = conditions: mouse, in vivo, ip
Text: as §1, §2
In addition, single-cell RNA sequencing was performed on the recovered sample.

N.N.[Cl][Pt][Cl] [cisplatin]
expression of human Kim-1 in the foreign proximal renal tubular cells [1]: expression of human Kim-1 was confirmed | expression of Kim-1 in the foreign proximal renal tubular cells [2]: dose-dependent expression of Kim-1 was confirmed | expression of disorder-related genes other than Kim-1 (regenerated nephrons): enhanced expression of disorder-related genes other than Kim-1 was also confirmed
